Data reported in PubChem BioAssay (NCI).
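Step 1: Grow cells in 96-well plates. Step 2: Expose to compound for 48 hours at 5 concentrations. Step 3: Interpolate endpoints linearly; if unreached, use highest concentration. GI50 is the concentration that inhibits growth by half. TGI marks complete inhibition of growth.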

How the values were obtained:
Test in all cases: inhibition of tumour cell growth, NCI panel, 48 h
[1] = test system: BT-549 breast
[2] = test system: NCI-H460 lung
[3] = test system: NCI-H522 lung
[4] = test system: ACHN renal
[5] = test system: HCC-2998 colon
[6] = test system: SNB-19 CNS
[7] = test system: A498 renal
[8] = test system: SF-295 CNS
[9] = test system: HOP-62 NSCLC
[10] = test system: SK-MEL-5 melanoma
[11] = test system: HT29 colon
[12] = test system: SN12C renal
[13] = test system: U251 CNS
[14] = test system: TK-10 renal
[15] = test system: HS 578T breast
[16] = test system: K-562 leukemia
[17] = test system: HCT-116 colon
[18] = test system: SW-620 colon
[19] = test system: HCT-15 colon
[20] = test system: OVCAR-8 ovarian
[21] = test system: UO-31 renal
[22] = test system: NCI-H226 lung
[23] = test system: M14 melanoma
[24] = test system: CCRF-CEM leukemia
[25] = test system: EKVX NSCLC
[26] = test system: HOP-92 NSCLC
[27] = test system: NCI-H23 lung
[28] = test system: MALME-3M melanoma
[29] = test system: RPMI-8226 leukemia
[30] = test system: DU-145 prostate
[31] = test system: MOLT-4 leukemia
[32] = test system: SR leukemia
[33] = test system: PC-3 prostate
[34] = test system: SNB-75 CNS
[35] = test system: CAKI-1 renal
[36] = test system: IGROV1 ovarian
[37] = test system: LOX IMVI melanoma
[38] = test system: NCI/ADR-RES ovarian
[39] = test system: MDA-MB-435
[40] = test system: MCF7 breast
[41] = test system: KM12 colon
[42] = test system: SF-539 CNS
[43] = test system: MDA-MB-231 breast
[44] = test system: SF-268 CNS
[45] = test system: RXF 393 renal
[46] = test system: A549 NSCLC
[47] = test system: OVCAR-5 ovarian
[48] = test system: SK-OV-3 ovarian
[49] = test system: OVCAR-4 ovarian
[50] = test system: 786-0 renal
[51] = test system: SK-MEL-28 melanoma
[52] = test system: UACC-62 melanoma
[53] = test system: T-47D breast
[54] = test system: SK-MEL-2 melanoma
[55] = test system: HL-60(TB) leukemia
[56] = test system: COLO 205 colon
[57] = test system: UACC-257 melanoma
[58] = test system: OVCAR-3 ovarian

Work on `COc1cccc(-c2cc(-c3ccc(Nc4nc(Nc5ccc(Cl)cc5)nc(Nc5ccc(Cl)cc5)n4)cc3)nc(N)c2C#N)c1` yielded a GI50 [1] of 2.44 µM, a TGI [1] of 10.9 µM and a GI50 [2] of 3.74 µM. It also gave a TGI [2] of 24.4 µM, a GI50 [3] of 1.75 µM and a TGI [3] of 4.62 µM. It also gave a GI50 [4] of 1.98 µM, a TGI [4] of 4.5 µM and a GI50 [5] of 2.11 µM. The TGI [5] was 5.54 µM, the GI50 [6] was 10.3 µM and the TGI [6] was > 39.3 µM. For the same molecule, the GI50 [7] was 4.7 µM, the TGI [7] was 29.4 µM and the GI50 [8] was 2.78 µM. For the same molecule, the TGI [8] was 10.2 µM, the GI50 [9] was 21.1 µM and the TGI [9] was 44.6 µM. For the same molecule, the GI50 [10] was 2.03 µM, the TGI [10] was 6.35 µM and the GI50 [11] was 3.96 µM. The TGI [11] was 35.8 µM, the GI50 [12] was 4.01 µM and the TGI [12] was > 100 µM. For the same molecule, the GI50 [13] was 3.76 µM, the TGI [13] was > 37.5 µM and the GI50 [14] was 2.21 µM. For the same molecule, the TGI [14] was 4.05 µM, the GI50 [15] was 2.66 µM and the TGI [15] was 11.2 µM. For the same molecule, the GI50 [16] was 1.52 µM, the TGI [16] was 5.53 µM and the GI50 [17] was 1.6 µM. The TGI [17] was 3.53 µM, the GI50 [18] was 2.41 µM and the TGI [18] was 5.64 µM. For the same molecule, the GI50 [19] was 2.46 µM, the TGI [19] was > 24.2 µM and the GI50 [20] was 3.51 µM. The TGI [20] was > 100 µM, the GI50 [21] was 1.52 µM and the TGI [21] was 4.31 µM. For the same molecule, the GI50 [22] was 2.16 µM, the TGI [22] was 5.78 µM and the GI50 [23] was 2.5 µM. It also gave a TGI [23] of 7.12 µM, a GI50 [24] of 1.91 µM and a TGI [24] of 11.5 µM. The GI50 [25] was 4.79 µM, the TGI [25] was 16.3 µM and the GI50 [26] was 1.1 µM. The TGI [26] was 3.41 µM, the GI50 [27] was 3.59 µM and the TGI [27] was > 54 µM. It also gave a GI50 [28] of 1.69 µM, a TGI [28] of 3.45 µM and a GI50 [29] of 1.77 µM. For the same molecule, the TGI [29] was > 27.9 µM, the GI50 [30] was 4.58 µM and the TGI [30] was 26.1 µM. For the same molecule, the GI50 [31] was 1.63 µM, the TGI [31] was 4.93 µM and the GI50 [32] was 0.966 µM. For the same molecule, the TGI [32] was 4.22 µM, the GI50 [33] was 2.01 µM and the TGI [33] was 12 µM. It also gave a GI50 [34] of 9.75 µM, a TGI [34] of 24.6 µM and a GI50 [35] of 1.23 µM. The TGI [35] was 5.09 µM, the GI50 [36] was 1.67 µM and the TGI [36] was 4.62 µM. The GI50 [37] was 2.22 µM, the TGI [37] was 6.44 µM and the GI50 [38] was 14.7 µM. For the same molecule, the TGI [38] was > 100 µM, the GI50 [39] was 1.82 µM and the TGI [39] was 4.24 µM. It also gave a TGI [40] of 5.84 µM, a GI50 [41] of 2.35 µM and a TGI [41] of 11.1 µM. For the same molecule, the GI50 [42] was 1.69 µM, the TGI [42] was 4.1 µM and the GI50 [43] was 1.74 µM. It also gave a TGI [43] of 5.43 µM, a GI50 [44] of 2.94 µM and a TGI [44] of 10.2 µM. It also gave a GI50 [45] of 1.44 µM, a TGI [45] of 3.68 µM and a GI50 [46] of 9.41 µM. The TGI [46] was > 100 µM, the GI50 [47] was 3.3 µM and the TGI [47] was 15.1 µM. For the same molecule, the GI50 [48] was 24.9 µM, the TGI [48] was > 63.9 µM and the GI50 [49] was 4.09 µM. For the same molecule, the TGI [49] was > 100 µM, the GI50 [50] was 1.77 µM and the TGI [50] was 3.43 µM. For the same molecule, the GI50 [51] was 1.9 µM, the TGI [51] was 3.98 µM and the GI50 [52] was 14.6 µM. It also gave a TGI [52] of 37.8 µM, a GI50 [53] of 1.34 µM and a TGI [53] of 3.67 µM. The GI50 [54] was 1.74 µM, the TGI [54] was 3.65 µM and the GI50 [55] was 0.838 µM. For the same molecule, the TGI [55] was 8.23 µM, the GI50 [56] was 1.63 µM and the TGI [56] was 3.39 µM. For the same molecule, the GI50 [57] was 2.03 µM, the TGI [57] was 4.8 µM and the GI50 [58] was 1.73 µM. For the same molecule, the TGI [58] was 3.53 µM.
